This note sets out measurements from patent publication US20260232625A1, “NOVEL DECURSIN DERIVATIVE AND USE THEREOF FOR PREVENTING OR TREATING NON-SMALL CELL LUNG CANCER” (JAEIN R&P INC., priority 2023, published 2026).

One data set concerns A549. The experiment in a line: MTT cytotoxicity evaluation against A549 cells. In kind it is cell-based, human. Conditions: for IC50: Homo sapiens, A549, 48 h, 48 hours. The protocol:
(§1) A549 (human lung cancer cells) were obtained from the American Type Culture Collection (ATCC) and used. The cells were cultured in a medium containing 10% FBS, 1% penicillin (10,000 units/mL), and streptomycin (10 mg/mL), or in Dulbecco's Modified Eagle's Medium (DMEM), at 37° C. under 5% CO2 conditions.
To measure cytotoxicity, an MTT assay was used. Specifically, A549 cells cultured according to Experimental Example 1 were seeded into a 96-well plate at a density of 2.5×10^4 cells/mL in 100 μL, and incubated for 24 hours. Thereafter, the cells were treated with either the compounds prepared according to Examples 1 to 27 or, as comparative agents, decursin or docetaxel. The prepared compounds and decursin were each administered to the A549 cell line at concentrations of 0 μM (untreated), 12.5 μM, 25 μM, 50 μM, 100 μM, and 200 μM, while docetaxel was administered at concentrations of 0 nM (untreated), 0.1 nM, 1 nM, 10 nM, 100 nM, and 1,000 nM, followed by incubation for an additional 48 hours. Then, 20 μL of MTT solution was added (Method 1). Alternatively, the compounds prepared according to Examples 28 to 30, the compound of Example 5 as a reference compound or, as comparative agents, decursin or docetaxel, were used. The prepared compounds, the compound of Example 5, and decursin were each administered at concentrations of 0 μM (untreated), 3.125 μM, 6.25 μM, 12.5 μM, 25 μM, and 50 μM, while docetaxel was administered at concentrations of 0 nM (untreated), 0.6 nM, 1.25 nM, 2.5 nM, 5 nM, and 10 nM, and treated in the same manner as described in Method 1 (Method 2). The cells treated with MTT solution were incubated for 2 hours, the medium was removed, and the formazan blue crystals formed by the cells were treated with an MTT lysis buffer, followed by incubation in a cell incubator for 24 hours. The MTT lysis buffer was prepared by mixing N,N-dimethylformamide with water in a 1:1 ratio to give a solution containing 20% SIDS (sodium dodecyl sulfate) at the final concentration. The optical density at 590 nm was measured using a microplate reader (FIGS. 1a to 1d). Based on the measured values, the cytotoxicity (IC50) against A549 was calculated, and the results are disclosed in Table 1 together with the structural formulae.

Another data set has as its system A549 cells. Put plainly: Co-administration with gefitinib, MTT cell viability and synergy score in A549 cells. In kind it is cell-based, human. Conditions: for cytotoxicity against A549 on co-administration with gefitinib: gefitinib 1.25-20 μM plus compound 6.25-100 μM, compared with decursin plus gefitinib, FIG. 2. As for the experimental part:
as §1
Nevertheless, the compound of Example 5, when used as a single agent, was somewhat limited in its efficacy, and therefore its potential as a co-administration agent with existing non-small cell lung cancer therapeutic agents was examined. To this end, gefitinib (Iressa) was selected, and the compound of Example 5, together with decursin for comparison, was co-administered to A549 cells, and the cytotoxicity thereof was measured. To further evaluate dose dependency, gefitinib was administered at concentrations of 0 μM (untreated), 1.25 μM, 2.5 μM, 5 μM, 10 μM, and 20 μM, in combination with either decursin or the […], each administered at concentrations of 0 μM (untreated), 6.25 μM, 12.5 μM, 25 μM, 50 μM, and 100 μM. The relative cell viability was measured by setting the viability of the untreated group, i.e., cells not treated with either gefitinib or decursin/decursin derivative, to 100%, and the results are shown in FIG. 2. Cell viability was determined using an MTT assay. […] In particular, as the concentration of the decursin derivative increased to 12.5 μM or higher, the difference in cell-killing effect became more pronounced.
Furthermore, the synergy score of the cytotoxicity of the combination of gefitinib with decursin or with the decursin derivative compound of Example 5 against A549 cells was calculated using the Synergyfinder webtool, and the results are shown in FIG. 3. A calculated synergy score of 10 or more was considered to indicate a synergistic effect, a score between −10 and 10 was considered to indicate an additive effect, and a score below −10 was considered to indicate an antagonistic effect.

Entries after “also recorded” stand apart in the source; their conditions may differ.

One may read the IC50 as the point on the concentration scale where inhibition reaches its midpoint. A higher IC50 goes with weaker potency. As to `CC1(C)Oc2cc3oc(=O)ccc3cc2C[C@@H]1OC(=O)/C=C/c1ccoc1` [Example 5, (S,E)-2,2-dimethyl-8-oxo-2,3,4,8-tetrahydropyrano[3,2-g]chromen-3-yl 3-(furan-3-yl)acrylate], the IC50 in the data set on A549 (Method 1: 12.5-200 μM) amounted to 30.3 µM; in the data set with A549 (Method 2 (marked *): 3.125-50 μM) it was 7.88 µM. For the same molecule, the “cell-killing effect against human lung cancer cell line A549 compared to decursin” value in the data set with A549 (single agent) is reported as “superior cell-killing effect; also recorded: most potent effect”. Besides, the “synergy score of cytotoxicity against A549” value in the data set with A549 cells (10 μM gefitinib plus 6.25 μM compound, Synergyfinder webtool, score of 10 or more = synergistic) is reported as approximately 15. Moreover, the “cytotoxicity against A549 on co-administration with gefitinib” value in the data set on A549 cells is “superior to that observed with co-administration of decursin and gefitinib”; with A549 cells (listed as compound of Formula 2) it was “synergistic cell-killing effect”.

With `C/C(=C\c1ccccc1)C(=O)O[C@@H]1Cc2cc3ccc(=O)oc3cc2OC1(C)C` [Example 13, (R,E)-2,2-dimethyl-8-oxo-2,3,4,8-tetrahydropyrano[3,2-g]chromen-3-yl 2-methyl-3-phenylacrylate], the IC50 with A549 (Method 1: 12.5-200 μM) came out at 108 µM.

For the molecule `CC1(C)Oc2cc3oc(=O)ccc3cc2C[C@@H]1OC(=O)/C=C/c1ccccn1` [Example 3, (S,E)-2,2-dimethyl-8-oxo-2,3,4,8-tetrahydropyrano[3,2-g]chromen-3-yl 3-(pyridin-2-yl)acrylate], half-maximal inhibition with A549 (Method 1: 12.5-200 μM) (IC50) was put at 113 µM.
